This is an account of results in PubChem BioAssay AID449750 (Broad Institute, 2010).

The structures appear in SMILES notation. Activity calls are given as the source filed them. The rule behind the calls is not given here.

The assay in a line: non-covalent RecA intein splicing inhibitors, dose response, biochemical, cell-free, fluorescence, secondary screen (AID 449750).
What is called AC50 is the midpoint of the concentration-response curve, whichever way the signal moves. As for `COc1ccc(S(=O)(=O)c2cnc3ccccc3n2)cc1`, the AC50 was > 38 µM (inactive).
For the compound `COC(=O)Cc1[nH]nc2c1C1(CCSCC1)C(C#N)=C(N)O2`, the AC50 was > 12 µM (inactive).
Then `O=C(CCl)N1CCCC1c1ccc2c(c1)OCCO2` (configuration not stated), with 4.86 µM; and `CC1=NN(c2ccccc2)C(=O)C1`, with 3.24 µM; and `CC(=O)c1c(C)nc(-c2ccc(Cl)cc2)nc1N=CN(C)C`, with > 38 µM (inactive).
To `COc1ccc(Cc2nccc3cc(OC)c(OC)cc23)cc1OC` belongs > 38 µM (inactive); to `C/C(CC(=O)Nc1cc(C)ccn1)=N\NC(=O)C(=O)NC(C)C`, > 38 µM (inactive); to `CN1c2ccccc2C(C)(C)C12C=Nc1c(cc(N3CCOCC3)c3ccccc13)O2` (configuration not stated), > 38 µM (inactive).
To `COc1cc(/C=N\NC(=O)c2ccccc2F)ccc1Oc1ccc([N+](=O)[O-])cn1` belongs > 38 µM (inactive); to `CC1CC(=O)c2c(cc3c(-c4c(O)cc(O)c5c(O)c6c(cc45)OC(C)CC6=O)c(O)cc(O)c3c2O)O1` (configuration not stated), 2.71 µM.
On to `Nc1ccc2nc[nH]c2c1`, for which the half-maximal activity concentration (AC50) was 10.6 µM.
Consider `O=C(C(=C1N(Cc2ccc(Cl)nc2)CCN1Cc1ccc(Cl)nc1)[N+](=O)[O-])C(Cl)Cl`, for which the AC50 is > 38 µM (inactive).
For `CCOC(=O)c1nnn(-c2nonc2-n2cccc2)c1CCl`, the AC50 is 26.6 µM.
Then `CCCCCOP(=O)(OCCCCC)C1(NS(=O)(=O)c2ccccc2)C=CC(=O)c2ccccc21` (configuration not stated), with 6.5 µM.
Then `CCc1ccc(S(=O)(=O)/N=C2\C=C(Nc3ccc(O)cc3)C(=O)c3ccccc32)cc1`, with 0.56 µM; and `CCc1ccc(S(=O)(=O)/N=C2\C=C(NS(=O)(=O)c3ccccc3)C(=O)c3ccccc32)cc1`, with 4.45 µM.
As to `COc1ccccc1N1C(=O)Cc2ccccc2C1=O`, the AC50 is > 38 µM (inactive).
To `O=C(CCS(=O)NCc1ccccc1)NCc1ccccc1` (configuration not stated) belongs > 38 µM (inactive).
Then `Cc1noc(C)c1CSCC(=O)Oc1ccc(N(C)S(=O)(=O)c2ccccc2)cc1`, with > 38 µM (inactive).
To `O=C1/C(=C/c2ccc(F)cc2)SC(=S)N1CC(=O)N1CCCCC1c1cccnc1` (configuration not stated) belongs 38.4 µM; to `Cc1[nH]n(-c2ccccc2)c(=O)c1C(c1ccccc1[N+](=O)[O-])C(C#N)C#N` (configuration not stated), 9.48 µM.
For `COc1ccc(COC(=O)N/N=C(\C)CC(=O)Nc2ccc(Cl)cn2)cc1`, the AC50 is > 38 µM (inactive).
Turning to `Cc1noc2ncnc(Sc3ccccc3Cl)c12`, the AC50 was > 38 µM (inactive).
Then `COCC(C)NC(=O)CCS(=O)(=O)c1nc(-c2ccc(OC)cc2)cc(C(F)(F)F)n1` (configuration not stated), with > 38 µM (inactive); and `COc1cc(NC2CCCCC2O)c2nc(-c3ccc(Cl)cc3)ccc2c1` (configuration not stated), with 9.05 µM; and `Cc1ccc(C2=NN(C(=O)CCl)C(c3ccco3)C2)o1` (configuration not stated), with 6.65 µM.
Then `Cc1c(C#N)c(NC(=O)CCl)n(Cc2ccccc2)c1C`, with 7.6 µM; and `O=C(N/N=C\c1ccc(-c2ccccc2[N+](=O)[O-])o1)C1COc2ccccc2O1` (configuration not stated), with 8.06 µM.
Then `O=C(N/N=C1\C/C(=N\NC(=O)c2ccncc2)c2ccccc21)c1ccncc1`, with 17.3 µM.
Take `Fc1ccc(-[n+]2nc(Nc3ccccc3)sc2-c2c3ccccc3cc3ccccc23)cc1`: the half-maximal activity concentration (AC50) is 12.4 µM.
Then `CC1=NNC(=O)/C1=C\c1cn(-c2ccccc2)nc1-c1ccccc1`, with 8.49 µM; and `CC(=O)Nc1ccc(NC(=O)CSc2ncc(C(=O)Nc3ccccc3)c(=O)n2C)cc1`, with 1.04 µM; and `CNc1ccc2nc3ccccc3[n+](C)c2c1`, with 11.3 µM.
Then `CC(=O)N(CCC(Cc1ccccc1)c1ccc2c(c1)OCO2)Cc1ccccc1F` (configuration not stated), with 3.99 µM; and `COc1ccc(Nc2nc(N3CCCCC3)nc3ccccc23)c(OC)c1`, with > 38 µM (inactive); and `CCn1nc(C)c(C2C(C#N)=C(N)Oc3n[nH]c(C)c32)c1C` (configuration not stated), with > 38 µM (inactive).
Take `O=C(CCl)N(CCc1ccccc1)CCc1ccccc1`: the concentration at half-maximal activity (AC50) was 3.25 µM.
Then `O=c1[nH]c(Nc2ccccc2Cl)cc2ccccc12`, with 15.5 µM.
Then `COC(=O)c1cc(C)nc2c1C(=O)C(=O)C=C2N1CCOCC1`, with 1.16 µM; and `Cc1ccc(-n2[nH]c(C)c(/C=N/NC(=O)c3ccc([N+](=O)[O-])cc3)c2=O)c(C)c1`, with 5.27 µM.
Then `CCCCCc1cc(=O)oc2c(C(CCN3CCCC(C)C3)c3ccc(N(C)C)cc3)c(OC)cc(OC)c12` (configuration not stated), with > 38 µM (inactive).
With `CCC(C)Nc1nc(Cl)nc(N(C#N)CN2C(=O)c3ccccc3S2(=O)=O)n1` (configuration not stated), the AC50 was > 38 µM (inactive).
Then `CCOc1cc(C2C(C#N)=C(N)Oc3n[nH]c(-c4ccccc4)c32)ccc1O` (configuration not stated), with 20.6 µM; and `Cc1c(/C=N/Nc2nc3ccccc3[nH]2)c2ccccc2n1C`, with 28.1 µM.
In the case of `O=c1c2c([nH]n1-c1ccccc1)CCSC2`, the AC50 is 36.5 µM.
For `C(=N\Nc1nncc2ccccc12)/c1ccccn1`, the AC50 was 19.8 µM.
To `O=C1C(Nc2ccc(O)cc2)=C/C(=N/S(=O)(=O)c2cccs2)c2ccccc21` belongs 0.179 µM.
Then `COc1ccccc1-c1cc(C(F)(F)F)nc(S(=O)(=O)CCCC(=O)N2CCOCC2)n1`, with 13.6 µM.
Then `COc1ccc(C(=O)c2c(C(F)(F)F)oc3c2C(=O)c2ccccc2C3=O)cc1OC`, with > 38 µM (inactive).
Turning to `CC1(C)Nc2ccc(O)cc2-c2c1ssc2=S`, the AC50 was > 38 µM (inactive).
Then `N#CC1=C(N)N(c2ccccc2)C(c2cccc([N+](=O)[O-])c2)C1(C#N)C#N` (configuration not stated), with > 38 µM (inactive); and `COc1ccccc1NC1=C(N2CCCCC2)C(=O)c2ccccc2C1=O`, with 8.09 µM.
For the compound `COc1ccc(C(c2c(C)[nH]n(-c3ccccc3)c2=O)c2c(C)[nH]n(-c3ccccc3)c2=O)cc1OC`, the AC50 is 1.38 µM.
To `COC(=O)c1sc(N)c(C(=O)OC)c1Cn1ncc(Cl)c(Cl)c1=O` belongs > 38 µM (inactive); to `CC1=NN(c2ccc(Cl)cc2)C(=O)C1`, 3.71 µM; to `O=C1C=C(Nc2ccccc2C(=O)O)c2ccccc2C1=O`, 6.57 µM.
`CCc1nnc(NC(=O)c2nc(S(=O)(=O)Cc3ccccc3)ncc2Cl)s1`: the concentration at half-maximal activity (AC50) was 31.2 µM.
Regarding `CCc1ccc(Nc2n[n+](-c3ccccc3)c(-c3c(Cl)cccc3Cl)s2)cc1`, the AC50 is 8.26 µM.
As to `C/C(CC(=O)Nc1ccccn1)=N\NC(=O)c1ccncc1`, the half-maximal activity concentration (AC50) was 28.8 µM.
As to `CC1=NN(c2ccc(C)c(C)c2)C(=O)C1C(c1cccc(O)c1)C1C(=O)N(c2ccc(C)c(C)c2)N=C1C` (configuration not stated), the AC50 was 3.38 µM.
Then `CCOc1ccccc1Nc1nnc(Cc2ccccc2Cl)c(=O)[nH]1`, with > 38 µM (inactive); and `CC1=NN(c2ccc(C)cc2C)C(=O)C1C(c1ccccc1)C1C(=O)N(c2ccc(C)cc2C)N=C1C` (configuration not stated), with 3.04 µM.
Regarding `Oc1ccc(O)c2c1C1c3ccccc3C2c2ccccc21`, the AC50 was 38.4 µM.
For `CC(=O)Nc1cccc(NC(=O)CSc2ncc(C(=O)Nc3ccccc3)c(=O)n2C)c1`, the AC50 is > 38 µM (inactive).
Then `O=C(Sc1nnc(-c2ccccc2)o1)N1c2ccccc2Sc2ccccc21`, with 11 µM.
Then `CC1CC(C)CN(C(=O)c2ccc3c(c2)N(Cc2ccccc2)CCS3)C1` (configuration not stated), with 14 µM; and `CCc1ccc(C2C(C#N)=C(N)C(C#N)(C#N)C3=CCC(C(C)(C)C)CC32)cc1` (configuration not stated), with > 38 µM (inactive).
To `Cc1[nH]n(-c2ccccc2)c(=O)c1C(c1cccc([N+](=O)[O-])c1O)c1c(C)[nH]n(-c2ccccc2)c1=O` belongs 1.72 µM.
Take `O=C(c1ccc(Cl)cc1)c1c[nH]c(C(=O)C(Cl)(Cl)Cl)c1`: the AC50 is 16.6 µM.
Then `CC(CCn1cccn1)NC(=O)CCc1nnc(CCc2ccccc2)o1` (configuration not stated), with > 38 µM (inactive).
Take `Cc1nnc(NC(=O)c2nc(S(=O)(=O)Cc3ccccc3C)ncc2Cl)s1`: the AC50 is > 38 µM (inactive).
Regarding `N#CC1=C(N)C(C#N)(C#N)C(c2cccnc2)C2CN(C(=O)OCc3ccccc3)CC=C12` (configuration not stated), the AC50 was > 38 µM (inactive).
Then `C=CCNC1=C(Cl)C(=O)c2ccccc2C1=O`, with 18.4 µM; and `CCc1cc(C(=O)c2ccc(C)cc2)c(NC(=O)CCl)s1`, with 2.62 µM.
Then `OCCN(CCO)c1ccc(C(c2ccccc2Cl)c2ccc(N(CCO)CCO)cc2Cl)c(Cl)c1`, with 4.12 µM.
With `CC1=NN(c2cccc(Cl)c2)C(=O)C1`, the half-maximal activity concentration (AC50) is 34.3 µM.
To `CCc1ccc(S(=O)(=O)/N=C2\C=C(Nc3cccc(C(=O)O)c3)C(=O)c3ccccc32)cc1` belongs 0.353 µM.
As for `O=C(CCl)N1N=C(c2ccco2)CC1c1ccco1` (configuration not stated), the half-maximal activity concentration (AC50) was 19.1 µM.
With `Clc1ccc(-c2nnc(Sc3nc4ccccc4o3)c3ccccc23)cc1`, the AC50 is 7.15 µM.
To `CCSc1c([N+](=O)[O-])c(=O)n(-c2ccccc2)c2ccccc12` belongs > 38 µM (inactive); to `Cc1ccc(SCC2=NNC(=O)C2)cc1`, 31.5 µM; to `Cc1cccc(Cn2nnc3c2C(=O)c2ccccc2C3=O)c1`, 28.7 µM.
To `CC(=O)OCCN(C)c1cc(SC(C)C)c2nonc2c1[N+](=O)[O-]` belongs > 38 µM (inactive); to `c1ccc(CNc2nc(NCc3ccccc3)c3ccccc3n2)cc1`, 7.61 µM.
Then `COc1ccccc1-c1c(C)oc2cc(OC(=O)c3ccco3)ccc2c1=O`, with > 38 µM (inactive).
Consider `O=C1c2ccccc2C(=O)c2c1oc(C(F)(F)F)c2C(=O)c1ccccc1`, for which the AC50 is > 38 µM (inactive).
With `CCOC(=O)c1ccc(-n2[nH]c(-c3ccccc3)cc2=O)cc1`, the AC50 is 5.45 µM.
Regarding `COc1ccc(-c2csc(CCN3N=C(C)CC3=O)n2)cc1`, the AC50 was 10.1 µM.
Turning to `CCNC(=O)c1ccccc1-c1nc(-c2ccccc2)no1`, the AC50 is > 38 µM (inactive).
In the case of `CCOc1cc(C(c2c(C)[nH][nH]c2=O)c2c(C)[nH][nH]c2=O)cc([N+](=O)[O-])c1O`, the AC50 was 13.1 µM.
Then `CC(=O)c1cccc(NC(=O)CSc2ncc(C(=O)Nc3ccccc3)c(=O)n2C)c1`, with > 12 µM (inactive); and `COc1ccc(C(c2c(C)[nH][nH]c2=O)c2c(C)[nH][nH]c2=O)cc1Br`, with 11.2 µM.
